Common to all, as to type: functional
One test relates to Aspergillus clavatus. The test can be described thus: Antimicrobial activity against Aspergillus clavatus MTCC 1323.
A further test has as its system Aspergillus niger. The experiment in a line: Antimicrobial activity against Aspergillus niger MTCC 282.
For another test, the system named is Candida albicans. The experiment in a line: Antimicrobial activity against Candida albicans MTCC 227.
A further test has as its system Streptococcus pyogenes. The experiment in a line: Antimicrobial activity against Streptococcus pyogenes MTCC 442 after 24 and 48 hr by serial broth dilution method. Background: Dilution methods test growth across graded concentrations, often in twofold steps.
A further test relates to Staphylococcus aureus. The test can be described thus: Antimicrobial activity against Staphylococcus aureus MTCC 96 after 24 and 48 hr by serial broth dilution method.
In the next test the test system is Pseudomonas aeruginosa. The experiment in a line: Antimicrobial activity against Pseudomonas aeruginosa MTCC 1688 after 24 and 48 hr by serial broth dilution method.
The next test relates to Escherichia coli. The test can be described thus: Antimicrobial activity against Escherichia coli MTCC 443 after 24 and 48 hr by serial broth dilution method.

Values after ≈ are worked out from the molar mass of the structure shown.

Regarding `Cc1ccc(-n2c(-c3ccccc3Cl)nc3ccc(CCn4c(-c5ccccc5Cl)nc5ccccc5c4=O)cc3c2=O)c(C)c1`, the MIC99 in the test with Aspergillus clavatus stood at 500 µg/mL (≈ 777 µM); in the test on Aspergillus niger, 500 µg/mL (≈ 777 µM); in the test with Candida albicans, 100 µg/mL (≈ 155 µM); against Streptococcus pyogenes, 50 µg/mL (≈ 77.7 µM); in the test with Staphylococcus aureus, 50 µg/mL (≈ 77.7 µM); against Pseudomonas aeruginosa it was 100 µg/mL (≈ 155 µM). The molecule also had an MIC99 in the test on Escherichia coli of 50 µg/mL (≈ 77.7 µM).
For `O=c1c2ccccc2nc(-c2ccccc2Cl)n1CCc1ccc2nc(-c3ccccc3Cl)n(-c3ccccc3[N+](=O)[O-])c(=O)c2c1`, the MIC99 against Aspergillus clavatus stood at 1000 µg/mL (≈ 1510 µM); in the test with Aspergillus niger it was 100 µg/mL (≈ 151 µM); against Candida albicans it was 100 µg/mL (≈ 151 µM); against Streptococcus pyogenes it was 12.5 µg/mL (≈ 18.9 µM); in the test with Staphylococcus aureus, 200 µg/mL (≈ 303 µM); against Pseudomonas aeruginosa, 200 µg/mL (≈ 303 µM). Moreover, the MIC99 against Escherichia coli came to 100 µg/mL (≈ 151 µM).
As to `O=c1c2ccccc2nc(-c2ccccc2Cl)n1CCc1ccc2nc(-c3ccccc3Cl)n(-c3c(Cl)cc([N+](=O)[O-])cc3Cl)c(=O)c2c1`, the MIC99 with Aspergillus clavatus was determined as 100 µg/mL (≈ 137 µM); against Aspergillus niger, 100 µg/mL (≈ 137 µM); against Candida albicans, 500 µg/mL (≈ 685 µM); in the test with Streptococcus pyogenes it was 50 µg/mL (≈ 68.5 µM); against Staphylococcus aureus, 100 µg/mL (≈ 137 µM); in the test on Pseudomonas aeruginosa it was 500 µg/mL (≈ 685 µM). This molecule came in with an MIC99 against Escherichia coli of 500 µg/mL (≈ 685 µM).
With `O=c1c2ccccc2nc(-c2ccccc2Cl)n1CCc1ccc2nc(-c3ccccc3Cl)n(-c3ccc(Cl)c(Cl)c3)c(=O)c2c1`, the MIC99 was determined as 100 µg/mL (≈ 146 µM) with Aspergillus clavatus; 500 µg/mL (≈ 731 µM) against Aspergillus niger; 100 µg/mL (≈ 146 µM) in the test with Candida albicans; 50 µg/mL (≈ 73.1 µM) with Streptococcus pyogenes; 50 µg/mL (≈ 73.1 µM) in the test on Staphylococcus aureus; 100 µg/mL (≈ 146 µM) against Pseudomonas aeruginosa. The MIC99 in the test on Escherichia coli worked out at 200 µg/mL (≈ 292 µM).
On to `Cc1cccc(-n2c(-c3ccccc3Cl)nc3ccc(CCn4c(-c5ccccc5Cl)nc5ccccc5c4=O)cc3c2=O)c1C`, for which the MIC99 was found to be 500 µg/mL (≈ 777 µM) with Aspergillus clavatus; 500 µg/mL (≈ 777 µM) in the test with Aspergillus niger; 500 µg/mL (≈ 777 µM) with Candida albicans; 100 µg/mL (≈ 155 µM) against Streptococcus pyogenes; 500 µg/mL (≈ 777 µM) in the test on Staphylococcus aureus; 100 µg/mL (≈ 155 µM) in the test on Pseudomonas aeruginosa. This molecule also came in with an MIC99 against Escherichia coli of 50 µg/mL (≈ 77.7 µM).
In the case of `Cc1ccc(C)c(-n2c(-c3ccccc3Cl)nc3ccc(CCn4c(-c5ccccc5Cl)nc5ccccc5c4=O)cc3c2=O)c1`, the MIC99 against Aspergillus clavatus came out at 500 µg/mL (≈ 777 µM); in the test with Aspergillus niger, 500 µg/mL (≈ 777 µM); against Candida albicans, 200 µg/mL (≈ 311 µM); in the test on Streptococcus pyogenes it was 25 µg/mL (≈ 38.8 µM); in the test on Staphylococcus aureus, 100 µg/mL (≈ 155 µM); against Pseudomonas aeruginosa, 200 µg/mL (≈ 311 µM). In the test on Escherichia coli, this molecule yielded an MIC99 of 100 µg/mL (≈ 155 µM).
Turning to `O=c1c2ccccc2nc(-c2ccccc2Cl)n1CCc1ccc2nc(-c3ccccc3Cl)n(-c3ccc(Br)cc3)c(=O)c2c1`, the MIC99 in the test on Aspergillus clavatus came to 1000 µg/mL (≈ 1440 µM); in the test with Aspergillus niger, 500 µg/mL (≈ 720 µM); with Candida albicans, 1000 µg/mL (≈ 1440 µM); against Streptococcus pyogenes, 500 µg/mL (≈ 720 µM); in the test with Staphylococcus aureus it was 500 µg/mL (≈ 720 µM); in the test with Pseudomonas aeruginosa, 200 µg/mL (≈ 288 µM). The same molecule came in with an MIC99 against Escherichia coli of 200 µg/mL (≈ 288 µM).
With `CC1(C)S[C@@H]2[C@H](NC(=O)[C@H](N)c3ccccc3)C(=O)N2[C@H]1C(=O)O` [AMPICILLIN], the MIC99 was determined as 100 µg/mL (≈ 286 µM) against Streptococcus pyogenes, 250 µg/mL (≈ 715 µM) against Staphylococcus aureus, 100 µg/mL (≈ 286 µM) in the test with Pseudomonas aeruginosa and 100 µg/mL (≈ 286 µM) with Escherichia coli.
Regarding `COC1=CC(=O)C[C@@H](C)[C@]12Oc1c(Cl)c(OC)cc(OC)c1C2=O` [GRISEOFULVIN], the figures for the MIC99 in the test on Aspergillus clavatus, against Aspergillus niger and against Candida albicans were 100 µg/mL (≈ 283 µM), 100 µg/mL (≈ 283 µM) and 500 µg/mL (≈ 1420 µM), respectively.
On to `O=c1c2ccccc2nc(-c2ccccc2Cl)n1CCc1ccc2nc(-c3ccccc3Cl)n(-c3cccc([N+](=O)[O-])c3)c(=O)c2c1`, for which the MIC99 against Aspergillus clavatus worked out at 100 µg/mL (≈ 151 µM); with Aspergillus niger, 1000 µg/mL (≈ 1510 µM); in the test with Candida albicans it was 1000 µg/mL (≈ 1510 µM); against Streptococcus pyogenes, 50 µg/mL (≈ 75.7 µM); in the test on Staphylococcus aureus, 50 µg/mL (≈ 75.7 µM); in the test on Pseudomonas aeruginosa, 100 µg/mL (≈ 151 µM). This molecule also registered an MIC99 against Escherichia coli of 50 µg/mL (≈ 75.7 µM).
In the case of `O=c1c2ccccc2nc(-c2ccccc2Cl)n1CCc1ccc2nc(-c3ccccc3Cl)n(-c3ccccc3Cl)c(=O)c2c1`, the MIC99 with Aspergillus clavatus was found to be 100 µg/mL (≈ 154 µM); in the test with Aspergillus niger, 100 µg/mL (≈ 154 µM); in the test on Candida albicans, 500 µg/mL (≈ 769 µM); in the test on Streptococcus pyogenes, 50 µg/mL (≈ 76.9 µM); in the test on Staphylococcus aureus it was 200 µg/mL (≈ 308 µM); with Pseudomonas aeruginosa it was 500 µg/mL (≈ 769 µM). The molecule further had an MIC99 in the test on Escherichia coli of 500 µg/mL (≈ 769 µM).
Take `O=c1c2ccccc2nc(-c2ccccc2Cl)n1CCc1ccc2nc(-c3ccccc3Cl)n(-c3ccc([N+](=O)[O-])cc3)c(=O)c2c1`: the MIC99 against Aspergillus clavatus came to 500 µg/mL (≈ 757 µM); against Aspergillus niger, 500 µg/mL (≈ 757 µM); against Candida albicans, 500 µg/mL (≈ 757 µM); in the test with Streptococcus pyogenes it was 100 µg/mL (≈ 151 µM); in the test with Staphylococcus aureus, 200 µg/mL (≈ 303 µM); with Pseudomonas aeruginosa it was 500 µg/mL (≈ 757 µM). Moreover, the MIC99 in the test with Escherichia coli stood at 100 µg/mL (≈ 151 µM).
With `COc1ccc(-n2c(-c3ccccc3Cl)nc3ccc(CCn4c(-c5ccccc5Cl)nc5ccccc5c4=O)cc3c2=O)c([N+](=O)[O-])c1`, the MIC99 with Aspergillus clavatus amounted to 500 µg/mL (≈ 724 µM); in the test with Aspergillus niger, 500 µg/mL (≈ 724 µM); against Candida albicans, 100 µg/mL (≈ 145 µM); in the test with Streptococcus pyogenes it was 100 µg/mL (≈ 145 µM); in the test with Staphylococcus aureus, 100 µg/mL (≈ 145 µM); against Pseudomonas aeruginosa, 500 µg/mL (≈ 724 µM). In the test with Escherichia coli, this molecule returned an MIC99 of 100 µg/mL (≈ 145 µM).
On to `Cc1ccc(-n2c(-c3ccccc3Cl)nc3ccc(CCn4c(-c5ccccc5Cl)nc5ccccc5c4=O)cc3c2=O)c([N+](=O)[O-])c1`, for which the MIC99 in the test with Aspergillus clavatus was 100 µg/mL (≈ 148 µM); in the test with Aspergillus niger, 1000 µg/mL (≈ 1480 µM); against Candida albicans it was 500 µg/mL (≈ 741 µM); in the test with Streptococcus pyogenes, 25 µg/mL (≈ 37.1 µM); in the test with Staphylococcus aureus, 100 µg/mL (≈ 148 µM); in the test on Pseudomonas aeruginosa it was 500 µg/mL (≈ 741 µM). Moreover, the MIC99 against Escherichia coli is 200 µg/mL (≈ 296 µM).

Usually MIC99 stands for the lowest concentration that inhibits either 99% of growth or 99% of the strains tested, depending on the study.

These data come from ChEMBL document CHEMBL3046196, “Dimeric 2-(2-chlorophenyl)-quinazolin-4-ones as potential antimicrobial agents” (2012).
